Read-outs that look alike come from different tables or passages of the source.
Assays:
[1] = target: TEM-1 (Escherichia coli, UniProt P62593); settings: read-out: Km (μM) difluoro sub., 5 nM TEM-1, PBS, pH 7.2
Method: For determination of Km of the β-lactamase substrate with TEM-1, substrates ranging from 40 μg/mL to 5 μg/mL were added to microplate wells with a constant concentration of 5 nM TEM-1. The plate was read for the first 5 minutes with a Tecan Safire fluorescence plate reader using a constant gain setting. Relative Fluorescence Units (RFUs) were converted into moles of product produced using a standard curve of the substrate's fluorescent product. This standard curve was produced by adding an excess of TEM-1 (0.5 μM) to an equal volume of substrate, and incubating for more than 1 hour. Substrate standard concentrations ranged from ˜16 nM to 2 μM. It was assumed the reaction went to completion. All enzyme and substrate solutions were prepared in PBS, pH 7.2.

[2] = pH range, hydrolysis rate: background fluorescence of substrate in buffers without enzyme; type: physicochemical; settings: for increase in fluorescence due to hydrolysis (percentage of maximum fluorescence): 1 μg/mL, over 250 min; for time to complete hydrolysis: assumes a constant rate of hydrolysis
Method: Compound 108 was prepared at a concentration of 1 μg/ml in three different buffers: MES at pH 5.5, PBS at pH 7.2, and Tris at pH 8.0. The substrate solutions were applied to the wells of a microplate, the plate was protected from light, and fluorescence values were gathered at time points from 10-250 minutes. […] Maximum signal was determined by the fluorescence value obtained when 10 μl of a 100 μg/ml solution of β-lactamase was added to control wells. Each point is the mean of 12 replicates. See, Example 32.
Solutions of Compound 108 (1 μg/mL) were prepared in pH 5.5 MES, pH 7.2 PBS, and pH 8.0 Tris-HCl, then added to 16 wells of a 96-well plate. For each pH, high concentrations of TEM-1 were added to 4 wells to obtain a maximum signal (assuming complete cleavage of all substrate). The entire plate was read every 15 min. for 250 min. All fluorescent signals were averaged, then normalized to a percentage of the maximum fluorescence. […] The Tris-HCl samples increased in fluorescence about 7.5% over 250 min., corresponding to complete hydrolysis after about 55 hrs. […] These estimations assume a constant rate of hydrolysis.

[3] = target: β-lactamase-conjugated secondary antibody (Escherichia coli, UniProt P62593); experiment: Fluorogenic sandwich ELISA for prostate specific antigen (PSA); settings: 1 μg substrate; fluorogenic assay
Method: For the fluorogenic assay, 100 μl/well of a 10 μg/ml solution of anti-prostate specific antigen (PSA) antibody was applied to microplate wells. After incubation and washes, a dilution series of purified PSA was applied, and detection was achieved using 100 μl of a 10 μg/ml of an anti-PSA primary antibody and 100 μl of a 10 μg/ml of a β-lactamase-conjugated secondary antibody in the presence of 1 μg Compound 108 substrate (with appropriate washes between steps). The Z-statistic^1 gives a lower limit of detection of PSA in this assay of 16 pg/ml. For the colorimetric assay, a commercially available kit for the detection of PSA in human serum or plasma was used according to the manufacturers instructions. The assay was performed using the PSA standards provided in the kit. […] The reaction was stopped after 15 minutes using the stop solution provided in the kit and the absorbance was read at 450 nm. […]
Optimal concentrations for use in ELISA-format assays was determined experimentally using a model sandwich ELISA to detect human Prostate Specific Antigen (PSA). […] The PSA standards were detected with a polyclonal rabbit anti-PSA antibody, then a secondary conjugate of goat anti-rabbit TEM-1. Plates were developed by addition of a β-lactamase substrate solution to drained wells, then measurement of fluorescence on the Tecan Safire fluorescence plate reader.

[4] = target: TEM-1 β-lactamase (Escherichia coli, UniProt P62593); experiment: Fluorescence from precipitating β-lactamase substrate in 96-well microplate; type: biochemical
Method: This was diluted 2-fold in methanol to give a working solution of 1 mM. 20 μL of 250 nM TEM-1 β-lactamase was added to the wells of a 96-well microplate. Appropriate volumes of substrate were added to the wells to give final concentrations of 0, 30, 50, 60, 75, 100, 140, 160 and 200 uM after diluting to 100 μL with 100 mM phosphate, 150 mM NaCl (pH7.1). The final β-lactamase concentration was 50 nM. Samples were excited @ 360 nm and fluorescence was measured @ 450 nm, signal was read @ 5, 13, 19, 26, 35, 45, 51 and 65 minutes. Maximum signal was attained after 5 minutes.

Sequence of TEM-1 β-lactamase (P62593 24-286 limits assumed): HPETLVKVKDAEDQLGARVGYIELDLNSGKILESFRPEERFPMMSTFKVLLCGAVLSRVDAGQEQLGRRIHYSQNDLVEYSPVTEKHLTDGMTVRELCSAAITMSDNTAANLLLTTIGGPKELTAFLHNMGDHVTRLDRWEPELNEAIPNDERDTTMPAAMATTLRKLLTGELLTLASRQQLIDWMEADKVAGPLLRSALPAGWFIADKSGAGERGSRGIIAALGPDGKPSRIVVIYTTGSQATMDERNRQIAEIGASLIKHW
Sequence of TEM-1 (P62593 24-286 limits assumed): as above
Sequence of β-lactamase-conjugated secondary antibody (P62593 24-286 limits assumed): as above

Structure (SMILES): O=C(Cc1cccs1)NC1C(=O)N2C(C(=O)O)=C(C=CCOc3cc4c(cc3F)C3(OC(=O)c5ccccc53)c3cc(F)c(OCC=CC5=C(C(=O)O)N6C(=O)C(NC(=O)Cc7cccs7)C6[S+]([O-])C5)cc3O4)C[S+]([O-])C12 (stereo not drawn) [Compound 108]
- Km ([1]; Lineweaver-Burk plot): 40 µM
- Km ([1]; Scatchard plot): 36 µM

Structure (SMILES): O=C(Cc1cccs1)NC1C(=O)N2C(C(=O)O)=C(/C=C/COc3cc4c(cc3F)C3(OC(=O)c5ccccc53)c3cc(F)c(OC/C=C/C5=C(C(=O)O)N6C(=O)C(NC(=O)Cc7cccs7)C6[S+]([O-])C5)cc3O4)C[S+]([O-])C12 (stereo not drawn) [Compound 108]
- increase in fluorescence due to hydrolysis (percentage of maximum fluorescence) ([2]; pH 5.5 MES and pH 7.2 PBS): about 3.25%
- time to complete hydrolysis ([2]; pH 5.5 MES and pH 7.2 PBS): about 128 hrs
- hydrolysis rate in pH 8.0 Tris-HCl relative to pH 5.5 MES and pH 7.2 PBS ([2]; pH 8.0 Tris-HCl vs MES/PBS): about double
- increase in fluorescence due to hydrolysis (percentage of maximum fluorescence) ([2]; pH 8.0 Tris-HCl): about 7.5%
- time to complete hydrolysis ([2]; pH 8.0 Tris-HCl): about 55 hrs
- lower limit of detection of PSA (Z-statistic) [3]: 16 pg/mL

Structure (SMILES): O=C(Cc1cccs1)NC1C(=O)N2C(C(=O)O)=C(COc3ccccc3-c3nc4ccccc4c(=O)[nH]3)C[S+]([O-])C12 (stereo not drawn) [Compound 38]
- fluorescence enhancement upon reaction w/β-lactamase ([4]; 50 nM β-lactamase, excitation 360 nm, emission 450 nm, pH 7.1): ≥ 90 fold
- time at which maximum signal was attained ([4]; 50 nM β-lactamase, pH 7.1): 5 min
- reaction with β-lactamase in the presence of 40% methanol ([4]; 40% methanol): no reaction occurred
- signal at high concentrations of substrate ([4]; substrate up to 200 uM, presumably due to decreased solubility): signal dropped

Reference: patent US8865891B2, “Optically-detectable enzyme substrates and their method of use” (priority 2004, dated 2014)
